Assay results as given in patent US20100092575A1, “Method of making treatment materials and using same to treat algae and/or pests” (priority 2004, published 2010).

Key:
[1] = aqueous; cited from earlier work
[2] = test system: flora and fauna in the water feature; conditions: previous treatment method of the water hazard
From the text: A golf course water hazard in Northern California contained large mats (i.e., growths) of string algae during the summer months. The algae were predominantly confined to the edges of the water body. […] Furthermore, a special permit is needed to apply toxic copper sulfate.

Compound | pH values at which decomposition significantly increases [1] | effect on flora and fauna in the water feature [2]
OO [hydrogen peroxide] | greater than 6 | 
O=S(=O)([O-])[O-].[Cu+2] [copper sulfate] |  | killed most of the flora and fauna
